# Values of other authors, collected in US20120136048A1, “TOPICAL, PERIOCULAR, OR INTRAOCULAR USE OF TOCOTRIENOLS FOR THE TREATMENT OF OPHTHALMIC DISEASES” (priority 2009, published 2012).
# Details: rat ocular tissues, every tissue to which it was administered
row,Structure (SMILES),concentration in ocular tissues after topical ophthalmic administration
1,Cc1c(C)c2c(c(C)c1O)CC[C@@](C)(CCC[C@H](C)CCC[C@H](C)CCCC(C)C)O2 [alpha-tocopherol],no significant increase
2,"CC(C)=CCC/C(C)=C/CC/C(C)=C/CC[C@]1(C)CCc2c(C)c(O)c(C)c(C)c2O1 [alpha-tocotrienol, Alpha-Tocotrienol]",increased markedly
